From PMC6704710, “Preclinical evaluation of 3D185, a novel potent inhibitor of FGFR1/2/3 and CSF-1R, in FGFR-dependent and macrophage-dominant cancer models” (Journal of Experimental & Clinical Cancer Research : CR, 2019)

Assays:
Experiment in all cases: Eurofins kinase panel
Assay type in all cases: biochemical
Conditions in all cases: read-out: Inhibition rate (%)
DAPK2(h) = target: T1, DAPK2(h) (Homo sapiens, UniProt Q9UIK4)
T1 construct: purchased Eurofins (KinaseProfiler)
Description: (§1) Active FGFR1–4, VEGFR1, KDR, VEGFR3, PDGFRα and PDGFRβ proteins were purchased from Eurofins (Fremont, United States), and kinase activity was assessed using ELISA, as previously reported. […]. Increasing concentrations of ATP were diluted for the kinase reaction in the ATP competition assay. CSF-1R kinase activity was analyzed using the Z’-LYTE™ Kinase Assay Kit (Thermo Fisher, United States). The assay formats are described in the SelectScreen Kinase Profiling Service Zlyte protocol. IC50 values were calculated by dose-response curve fitting using Prism (Graph Pad).

CaMKK1(h) = target: T2, CaMKK1(h) (Homo sapiens, UniProt Q8N5S9)
T2 construct: purchased Eurofins (KinaseProfiler)
T2 sequence (Q8N5S9 whole entry): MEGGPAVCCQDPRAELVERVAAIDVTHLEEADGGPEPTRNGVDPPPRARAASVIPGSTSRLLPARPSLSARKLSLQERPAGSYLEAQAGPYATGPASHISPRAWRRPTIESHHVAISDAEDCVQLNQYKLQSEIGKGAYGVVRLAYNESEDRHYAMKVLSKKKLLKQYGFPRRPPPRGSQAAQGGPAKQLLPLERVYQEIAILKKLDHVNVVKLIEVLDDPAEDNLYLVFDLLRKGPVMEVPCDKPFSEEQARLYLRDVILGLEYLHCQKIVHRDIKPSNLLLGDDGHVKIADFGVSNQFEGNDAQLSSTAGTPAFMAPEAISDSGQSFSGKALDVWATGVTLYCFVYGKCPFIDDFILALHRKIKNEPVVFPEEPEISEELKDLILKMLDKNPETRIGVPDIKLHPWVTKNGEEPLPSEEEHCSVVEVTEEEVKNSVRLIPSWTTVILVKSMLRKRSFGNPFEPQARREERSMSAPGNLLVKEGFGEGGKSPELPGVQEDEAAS
Description: as §1

ZAK(h) = target: T3, ZAK(h) (Homo sapiens, UniProt Q9NYL2)
T3 construct: purchased Eurofins (KinaseProfiler)
T3 sequence (Q9NYL2 whole entry): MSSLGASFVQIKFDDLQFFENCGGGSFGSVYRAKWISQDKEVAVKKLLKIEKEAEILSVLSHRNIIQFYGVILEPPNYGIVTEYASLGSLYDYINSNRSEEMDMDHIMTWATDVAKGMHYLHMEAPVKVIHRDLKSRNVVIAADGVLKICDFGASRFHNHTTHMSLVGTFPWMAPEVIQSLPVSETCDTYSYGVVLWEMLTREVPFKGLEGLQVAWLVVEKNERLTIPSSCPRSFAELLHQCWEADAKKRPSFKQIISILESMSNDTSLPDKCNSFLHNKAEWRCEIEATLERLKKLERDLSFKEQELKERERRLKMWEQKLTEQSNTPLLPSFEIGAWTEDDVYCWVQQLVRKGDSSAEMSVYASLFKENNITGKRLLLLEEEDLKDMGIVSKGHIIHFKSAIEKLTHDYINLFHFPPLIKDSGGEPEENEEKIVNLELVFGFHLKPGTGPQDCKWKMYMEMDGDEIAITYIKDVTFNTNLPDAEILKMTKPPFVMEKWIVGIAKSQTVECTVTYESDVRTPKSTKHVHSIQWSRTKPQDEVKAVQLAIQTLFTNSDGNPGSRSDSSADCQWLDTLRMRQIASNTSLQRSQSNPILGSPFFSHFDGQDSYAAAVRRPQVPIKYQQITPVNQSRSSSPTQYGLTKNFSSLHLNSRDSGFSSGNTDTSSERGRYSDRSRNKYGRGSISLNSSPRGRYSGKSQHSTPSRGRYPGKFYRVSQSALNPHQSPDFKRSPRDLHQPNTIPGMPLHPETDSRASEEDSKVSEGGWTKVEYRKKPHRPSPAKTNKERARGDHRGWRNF
Description: as §1

CaMKIIα(h) = target: T4, CaMKIIα(h) (Homo sapiens, UniProt Q9UQM7)
T4 construct: purchased Eurofins (KinaseProfiler)
T4 sequence (Q9UQM7 whole entry): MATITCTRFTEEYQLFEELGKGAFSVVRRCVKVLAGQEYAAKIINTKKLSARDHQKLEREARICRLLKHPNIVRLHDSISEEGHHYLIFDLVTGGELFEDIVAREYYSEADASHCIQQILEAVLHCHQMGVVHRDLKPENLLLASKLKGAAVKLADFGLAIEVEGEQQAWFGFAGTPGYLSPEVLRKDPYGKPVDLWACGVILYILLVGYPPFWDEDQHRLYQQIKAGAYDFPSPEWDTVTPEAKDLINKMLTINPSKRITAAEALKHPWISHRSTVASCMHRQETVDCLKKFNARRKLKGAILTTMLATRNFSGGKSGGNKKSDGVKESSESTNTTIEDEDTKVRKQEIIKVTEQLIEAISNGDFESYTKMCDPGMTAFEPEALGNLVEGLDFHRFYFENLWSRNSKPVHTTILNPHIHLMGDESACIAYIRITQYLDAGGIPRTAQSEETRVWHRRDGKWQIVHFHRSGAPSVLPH
Description: as §1

PKD3(h) = target: T5, PKD3(h) (Homo sapiens, UniProt O94806)
T5 construct: purchased Eurofins (KinaseProfiler)
T5 sequence (O94806 1-890): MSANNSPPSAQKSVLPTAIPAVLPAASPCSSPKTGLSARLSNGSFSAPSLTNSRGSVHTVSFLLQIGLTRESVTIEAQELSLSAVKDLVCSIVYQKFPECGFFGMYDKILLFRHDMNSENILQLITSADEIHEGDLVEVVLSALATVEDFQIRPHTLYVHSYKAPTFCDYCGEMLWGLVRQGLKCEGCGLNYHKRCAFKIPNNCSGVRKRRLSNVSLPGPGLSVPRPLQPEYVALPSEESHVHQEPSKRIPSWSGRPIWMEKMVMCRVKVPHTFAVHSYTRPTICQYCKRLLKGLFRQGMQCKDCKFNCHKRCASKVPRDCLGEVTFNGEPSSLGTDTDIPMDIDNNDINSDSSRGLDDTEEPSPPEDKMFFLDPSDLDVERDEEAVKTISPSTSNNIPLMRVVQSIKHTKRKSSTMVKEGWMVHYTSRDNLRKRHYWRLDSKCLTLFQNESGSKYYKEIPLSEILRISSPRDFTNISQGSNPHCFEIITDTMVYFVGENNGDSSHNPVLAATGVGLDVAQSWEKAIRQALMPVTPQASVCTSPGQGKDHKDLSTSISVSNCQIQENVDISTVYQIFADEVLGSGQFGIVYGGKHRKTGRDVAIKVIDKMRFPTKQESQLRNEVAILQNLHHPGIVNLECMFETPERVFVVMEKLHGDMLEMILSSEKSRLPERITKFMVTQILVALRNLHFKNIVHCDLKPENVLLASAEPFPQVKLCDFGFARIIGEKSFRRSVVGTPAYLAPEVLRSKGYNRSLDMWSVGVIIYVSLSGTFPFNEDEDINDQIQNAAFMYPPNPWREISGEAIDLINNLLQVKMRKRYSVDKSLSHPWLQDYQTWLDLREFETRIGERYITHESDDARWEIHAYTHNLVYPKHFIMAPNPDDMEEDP
Description: as §1

eEF-2K(h) = target: T6, eEF-2K(h) (Homo sapiens, UniProt O00418)
T6 construct: purchased Eurofins (KinaseProfiler)
T6 sequence (O00418 1-725): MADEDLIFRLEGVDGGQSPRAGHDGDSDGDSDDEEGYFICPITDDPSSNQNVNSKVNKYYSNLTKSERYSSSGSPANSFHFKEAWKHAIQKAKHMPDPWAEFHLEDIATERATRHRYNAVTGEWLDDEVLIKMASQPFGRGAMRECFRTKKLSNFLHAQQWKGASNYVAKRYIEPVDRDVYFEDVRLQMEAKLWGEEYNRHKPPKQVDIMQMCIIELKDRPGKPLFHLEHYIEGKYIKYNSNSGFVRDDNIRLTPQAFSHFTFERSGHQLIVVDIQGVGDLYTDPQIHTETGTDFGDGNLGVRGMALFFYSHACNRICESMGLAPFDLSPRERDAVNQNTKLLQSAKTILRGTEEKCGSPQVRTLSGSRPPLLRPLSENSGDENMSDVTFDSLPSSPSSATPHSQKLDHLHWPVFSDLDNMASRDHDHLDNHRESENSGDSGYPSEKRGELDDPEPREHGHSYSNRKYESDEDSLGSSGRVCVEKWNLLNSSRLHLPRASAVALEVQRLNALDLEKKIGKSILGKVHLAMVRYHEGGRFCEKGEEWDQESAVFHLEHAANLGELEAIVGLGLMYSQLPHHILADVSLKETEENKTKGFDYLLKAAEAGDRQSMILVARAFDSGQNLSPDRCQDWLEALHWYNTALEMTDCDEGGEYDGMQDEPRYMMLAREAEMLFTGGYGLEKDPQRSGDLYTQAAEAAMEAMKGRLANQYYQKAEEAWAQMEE
Description: as §1

BTK(h) = target: T7, BTK(h) (Homo sapiens, UniProt Q06187)
T7 construct: purchased Eurofins (KinaseProfiler)
T7 sequence (Q06187 whole entry): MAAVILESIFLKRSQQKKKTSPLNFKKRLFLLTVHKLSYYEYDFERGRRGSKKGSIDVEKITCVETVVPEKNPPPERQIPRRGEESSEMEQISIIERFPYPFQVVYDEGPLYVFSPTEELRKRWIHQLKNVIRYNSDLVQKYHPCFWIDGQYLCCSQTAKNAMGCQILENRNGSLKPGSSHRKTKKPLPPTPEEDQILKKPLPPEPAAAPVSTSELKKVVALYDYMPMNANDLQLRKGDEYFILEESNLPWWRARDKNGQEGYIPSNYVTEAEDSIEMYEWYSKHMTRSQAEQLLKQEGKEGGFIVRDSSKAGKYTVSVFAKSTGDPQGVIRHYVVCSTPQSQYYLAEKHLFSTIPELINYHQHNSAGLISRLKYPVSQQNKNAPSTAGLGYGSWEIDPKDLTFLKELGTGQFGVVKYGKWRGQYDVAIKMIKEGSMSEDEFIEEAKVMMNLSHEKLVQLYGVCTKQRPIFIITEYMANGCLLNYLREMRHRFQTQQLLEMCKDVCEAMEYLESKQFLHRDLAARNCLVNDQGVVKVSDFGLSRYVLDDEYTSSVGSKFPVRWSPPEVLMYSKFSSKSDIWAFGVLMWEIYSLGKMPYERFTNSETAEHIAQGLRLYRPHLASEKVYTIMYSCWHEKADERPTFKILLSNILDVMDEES
Description: as §1

NEK3(h) = target: T8, NEK3(h) (Homo sapiens, UniProt P51956)
T8 construct: purchased Eurofins (KinaseProfiler)
T8 sequence (P51956 1-506): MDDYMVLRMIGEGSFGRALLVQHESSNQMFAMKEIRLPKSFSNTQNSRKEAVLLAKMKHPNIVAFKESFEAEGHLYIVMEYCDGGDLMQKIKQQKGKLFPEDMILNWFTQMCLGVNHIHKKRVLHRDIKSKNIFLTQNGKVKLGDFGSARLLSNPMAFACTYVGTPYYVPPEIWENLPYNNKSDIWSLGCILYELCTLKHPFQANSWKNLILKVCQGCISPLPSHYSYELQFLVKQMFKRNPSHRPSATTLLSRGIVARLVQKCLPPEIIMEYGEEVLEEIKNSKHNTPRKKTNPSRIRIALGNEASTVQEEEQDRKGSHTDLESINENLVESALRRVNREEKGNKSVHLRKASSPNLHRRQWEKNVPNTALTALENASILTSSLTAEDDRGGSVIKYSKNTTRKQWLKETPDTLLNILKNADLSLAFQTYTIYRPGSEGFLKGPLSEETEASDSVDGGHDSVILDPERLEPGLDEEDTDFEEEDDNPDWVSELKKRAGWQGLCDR
Description: as §1

T1 sequence (Q9UIK4 whole entry): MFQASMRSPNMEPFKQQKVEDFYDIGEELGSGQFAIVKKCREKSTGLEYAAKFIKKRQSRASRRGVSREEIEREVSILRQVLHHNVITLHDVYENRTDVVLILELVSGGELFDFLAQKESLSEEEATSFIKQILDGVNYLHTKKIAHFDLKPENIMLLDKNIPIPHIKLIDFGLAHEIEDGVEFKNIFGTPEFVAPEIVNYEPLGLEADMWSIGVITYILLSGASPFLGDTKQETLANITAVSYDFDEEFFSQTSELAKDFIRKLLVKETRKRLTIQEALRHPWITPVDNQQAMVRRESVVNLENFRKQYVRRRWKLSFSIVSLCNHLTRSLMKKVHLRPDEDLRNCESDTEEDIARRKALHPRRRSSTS

SMILES: COc1cc(OC)c(Cl)c(-c2ccc3c(NC(=O)c4ccc(N5CCNC(C)(C)C5)cc4)n[nH]c3n2)c1Cl [3D185]
- inhibition at 0.01 µM (DAPK2(h); 10 nM): 1%
- inhibition at 0.1 µM (DAPK2(h); 100 nM): -8%
- inhibition at 1 µM (DAPK2(h); 1000 nM): 2%
- inhibition at 0.01 µM (CaMKK1(h); 10 nM): -1%
- inhibition at 0.1 µM (CaMKK1(h); 100 nM): 5%
- inhibition at 1 µM (CaMKK1(h); 1000 nM): 35%
- inhibition at 0.01 µM (ZAK(h); 10 nM): 1%
- inhibition at 0.1 µM (ZAK(h); 100 nM): -2%
- inhibition at 1 µM (ZAK(h); 1000 nM): 8%
- inhibition at 0.01 µM (CaMKIIα(h); 10 nM): -9%
- inhibition at 0.1 µM (CaMKIIα(h); 100 nM): 2%
- inhibition at 1 µM (CaMKIIα(h); 1000 nM): -15%
- inhibition at 0.01 µM (PKD3(h); 10 nM): -3%
- inhibition at 0.1 µM (PKD3(h); 100 nM): -2%
- inhibition at 1 µM (PKD3(h); 1000 nM): 11%
- inhibition at 0.01 µM (eEF-2K(h); 10 nM): 4%
- inhibition at 0.1 µM (eEF-2K(h); 100 nM): 2%
- inhibition at 1 µM (eEF-2K(h); 1000 nM): 11%
- inhibition at 0.01 µM (BTK(h); 10 nM): 11%
- inhibition at 0.1 µM (BTK(h); 100 nM): 39%
- inhibition at 1 µM (BTK(h); 1000 nM): 90%
- inhibition at 0.01 µM (NEK3(h); 10 nM): 10%
- inhibition at 0.1 µM (NEK3(h); 100 nM): 13%
- inhibition at 1 µM (NEK3(h); 1000 nM): 5%
